Measurements published in patent US20110039763A1, “TARGETED ANTIMICROBIAL MOIETIES” (C3 JIAN, INC., priority 2009, published 2011).
Entries after “also recorded” stand apart in the source; their conditions may differ.

Tests used:
[1] = tested on: microorganisms; test: Peptide activities: targeting/binding, antimicrobial, growth or phenotype altering (Tables 7, 8); assay type: cell-based; settings: peptides having multiple activities
[2] = tested on: microorganisms; test: Morphology, biofilm and growth disrupting peptides (Table 5); assay type: cell-based; parameters: key: A: Peptide aggregates; B: Less hyphal formation; Clumps; Diffuse clumps and small polyps; F: Diffuse growth; H: Thin; I: Growth inhibition; Microcolony formation; Rippled; Small polyps; Thick; W: Halo formation on top, microlonies on bottom
Text: In certain embodiments peptides that induce alterations in phenotype or other biological activities can also be used as antimicrobial effector moieties.

[3] = tested on: microorganisms; test: Targeting peptide binding to target microorganisms (Tables 3, 10, 12); settings: microorganism(s) the targeting peptide binds, preferably 1x PBS
[4] = binding in aqueous buffers that varied with peptide solubility
[5] = binding in aqueous buffers varied with peptide solubility

With ALDCSEQSVILWYETILDKIVGVIK [PF-028] the Activities [1] was “G B”, the “Organism, effect: C. jeikeium” value ([2]; C. jeikeium) was “C. jeikeium (M)” and the “Organism, effect: MRSA” value ([2]; MRSA) was “MRSA (R)”. For the same molecule, the “Organism, effect: S. epidermidis” value ([2]; S. epidermidis) was “S. epidermidis (M)” and the “Target(s)” value [3, 4] was “S. epidermidis and M. luteus and MRSA”.

For DEIKVSDEEIEKFIKENNL [PF-597], the Activities [1] was “G B”, the “Organism, effect” value ([2]; E. faecalis) was “E. faecalis (A)” and the “Target(s)” value [3, 5] was “P. mirabilis”.

With “GNVHPESDFHNLIQFIKTFLYFTIFFKYFL [PF-C290]” the Activities [1] was “G B”, the “Organism, effect” value ([2]; S. mutans) was “S. mutans (F)” and the “Target(s)” value [3, 5] was “A. naeslundii; also recorded: F. nucleatum; also recorded: P. gingivalis; also recorded: S. mutans; also recorded: T. denticola”.

HCVIGNVVDIANLLKRRAVYRDIADVIKMR [PF-071] was tested, and the Activities [1] was “G B”, the “Organism, effect: B. subtilis” value ([2]; B. subtilis) was “B. subtilis (D)” and the “Organism, effect: C. albicans” value ([2]; C. albicans) was “C. albicans (B)”. For the same molecule, the “Organism, effect: C. jejuni” value ([2]; C. jejuni) was “C. jejuni (A)”, the “Organism, effect: M. luteus” value ([2]; M. luteus) was “M. luteus (R)” and the “Organism, effect: MRSA” value ([2]; MRSA) was “MRSA (C)”. For the same molecule, the “Organism, effect: S. epidermidis” value ([2]; S. epidermidis) was “S. epidermidis (R)”, the “Organism, effect: S. pneumoniae” value ([2]; S. pneumoniae) was “S. pneumoniae (A)” and the “Target(s)” value [3, 4] was “S. epidermidis and E. coli and P. aeruginosa and C. albicans and MRSA and S. pneumoniae and E. faecalis”.

HKNKLNIPHIKS [PF-477] was tested, and the Activities [1] was “G B”, the “Organism, effect” value ([2]; S. pneumoniae) was “S. pneumoniae (H)” and the “Target(s)” value [3, 5] was “S. epidermidis; also recorded: M. luteus; also recorded: C. albicans; also recorded: S. pneumoniae; also recorded: C. jeikeium; also recorded: C. jejuni”.

In the case of KKFKIFVIINWFYHKYIILNFEENF [PF-C085], the Activities [1] is reported as “G B”, the “Organism, effect” value ([2]; S. mutans) is reported as “S. mutans (F)” and the “Target(s)” value [3, 5] is reported as “A. naeslundii; also recorded: F. nucleatum; also recorded: P. gingivalis; also recorded: S. mutans; also recorded: T. denticola”.

For LHVIRPRPELSELKFPITKILKVNKQGLKK [PF-752], the Activities [1] was “G B”, the “Organism, effect” value ([2]; S. pneumoniae) was “S. pneumoniae (C)” and the “Target(s)” value [3, 5] was “S. epidermidis and E. coli and MRSA and S. pneumoniae and E. faecalis”.

In the case of LIQKGLNQTFIVVIRLNNFIKKS [PF-013], the Activities [1] is reported as “G B”, the “Organism, effect: C. jeikeium” value ([2]; C. jeikeium) is reported as “C. jeikeium (D)” and the “Organism, effect: M. luteus” value ([2]; M. luteus) is reported as “M. luteus (D)”. The “Organism, effect: MRSA” value ([2]; MRSA) was “MRSA (R)”, the “Organism, effect: S. epidermidis” value ([2]; S. epidermidis) was “S. epidermidis (C)” and the “Target(s)” value [3, 4] was “M. luteus and P. mirabilis and E. coli and P. aeruginosa and MRSA and S. pneumoniae and C. jeikeium and C. jejuni”.

For “LMFFSENMDKRDTLSGKFRYFAGSKVIKLMNWLSENGK [PF-226]”, the Activities [1] was “G B”, the “Organism, effect: M. luteus” value ([2]; M. luteus) was “M. luteus (T)” and the “Organism, effect: S. epidermidis” value ([2]; S. epidermidis) was “S. epidermidis (C)”. For the same molecule, the “Target(s)” value [3, 5] was “A. baumannii”.

LNFRAENKILEKIHISLIDTVEGSA [PF-575] was tested, and the Activities [1] was “G B”, the “Organism, effect” value ([2]; C. jeikeium) was “C. jeikeium (A)” and the “Organism, effect” value ([2]; C. jejuni) was “C. jejuni (R)”. The “Organism, effect” value ([2]; P. aeruginosa) was “P. aeruginosa (A)”, the “Organism, effect” value ([2]; S. pneumoniae) was “S. pneumoniae (A)” and the “Target(s)” value [3, 5] was “M. luteus and E. coli and C. albicans and MRSA and S. pneumoniae and E. faecalis and C. jeikeium”.

With LSPRPIIVSRRSRADNNNDWSR [PF-143] the Activities [1] was “G B”, the “Organism, effect: P. aeruginosa” value ([2]; P. aeruginosa) was “P. aeruginosa (C)” and the “Target(s)” value [3, 5] was “S. epidermidis and MRSA and C. jeikeium”.

With MQIFYIKTKIFLSFFLFLLIFSQCFYKIEE [PF-442] the Activities [1] was “G B”, the “Organism, effect” value ([2]; MRSA) was “MRSA (M)” and the “Organism, effect” value ([2]; S. pneumoniae) was “S. pneumoniae (C)”. The “Target(s)” value [3, 5] was “S. epidermidis; also recorded: E. coli; also recorded: C. albicans; also recorded: S. pneumoniae; also recorded: E. faecalis”.

“NTNDLLQAFELMGLGMAGVFIVLGILYIVAELLIKIFPVNN [PF-C194]” was tested, and the Activities [1] was “G B”, the “Organism, effect” value ([2]; F. nucleatum) was “F. nucleatum (T)” and the “Organism, effect” value ([2]; P. gingivalis) was “P. gingivalis (T)”. For the same molecule, the “Organism, effect” value ([2]; S. mutans) was “S. mutans (F)” and the “Target(s)” value [3, 5] was “A. naeslundii; also recorded: F. nucleatum; also recorded: P. gingivalis; also recorded: S. mutans; also recorded: T. denticola”.

With “PF-002: peptide having multiple activities (NDDAQ; Peptide with targeting and/or antimicrobial activity)” the Activities [1] was “G B”, the “Organism, effect: B. subtilis” value ([2]; B. subtilis) was “B. subtilis (R)” and the “Organism, effect: S. pneumoniae” value ([2]; S. pneumoniae) was “S. pneumoniae (H)”. The “Target(s)” value [3, 4] was “S. epidermidis; also recorded: P. mirabilis; also recorded: C. albicans; also recorded: C. jeikeium; also recorded: C. jejuni”.

For “PF-003: peptide having multiple activities (MNNWIKVAQISVTVINEVIDIMKEKQNGGK; Peptide with targeting and/or antimicrobial activity)”, the Activities [1] was “G B”, the “Organism, effect: C. jeikeium” value ([2]; C. jeikeium) was “C. jeikeium (A)” and the “Organism, effect: M. luteus” value ([2]; M. luteus) was “M. luteus (A)”. For the same molecule, the “Organism, effect: MRSA” value ([2]; MRSA) was “MRSA (R)”, the “Organism, effect: S. epidermidis” value ([2]; S. epidermidis) was “S. epidermidis (D)” and the “Target(s)” value [3, 4] was “S. epidermidis and M. luteus and P. mirabilis and C. albicans and MRSA and C. jeikeium”.

With “PF-008: peptide having multiple activities (MIEIGSIAYLNGGSKKYNHILNQENR; Peptide with targeting and/or antimicrobial activity)” the Activities [1] was “G B”, the “Organism, effect: B. subtilis” value ([2]; B. subtilis) was “B. subtilis (D)” and the “Organism, effect: C. jejuni” value ([2]; C. jejuni) was “C. jejuni (R)”. The “Target(s)” value [3, 4] was “S. epidermidis and M. luteus and MRSA and C. jejuni”.

For “PF-009: peptide having multiple activities (SKKYNHILNQENR; Peptide with targeting and/or antimicrobial activity)”, the Activities [1] was “G B”, the “Organism, effect: S. epidermidis” value ([2]; S. epidermidis) was “S. epidermidis (S)” and the “Target(s)” value [3, 4] was “M. luteus; also recorded: P. mirabilis; also recorded: C. albicans”.

With “PF-010: peptide having multiple activities (MDIDVNKLLQAFVYFKSFEKLRHNNS; Peptide with targeting and/or antimicrobial activity)” the Activities [1] was “G B”, the “Organism, effect: C. jeikeium” value ([2]; C. jeikeium) was “C. jeikeium (A)” and the “Organism, effect: M. luteus” value ([2]; M. luteus) was “M. luteus (A)”. The “Organism, effect: MRSA” value ([2]; MRSA) was “MRSA (R)”, the “Organism, effect: S. epidermidis” value ([2]; S. epidermidis) was “S. epidermidis (S)” and the “Target(s)” value [3, 4] was “S. epidermidis; also recorded: M. luteus; also recorded: E. coli; also recorded: C. albicans”.

In the case of “PF-011: peptide having multiple activities (MFCYYKQHKGDNFSIEEVKNIIADNEMKVN; Peptide with targeting and/or antimicrobial activity)”, the Activities [1] is reported as “G B”, the “Organism, effect: C. jeikeium” value ([2]; C. jeikeium) is reported as “C. jeikeium (C)” and the “Organism, effect: MRSA” value ([2]; MRSA) is reported as “MRSA (R)”. For the same molecule, the “Target(s)” value [3, 4] was “M. luteus; also recorded: E. coli; also recorded: P. aeruginosa; also recorded: S. pneumoniae; also recorded: C. jeikeium”.

“PF-619: peptide having multiple activities (chain 1 WSRVPGHSDTGWKVWHRW; chain 2 WSRVPGHSDTGWKVWHRW; Peptide with targeting and/or antimicrobial activity)” was tested, and the Activities [1] was “G B”, the “Organism, effect” value ([2]; E. coli) was “E. coli (C)” and the “Organism, effect” value ([2]; MRSA) was “MRSA (M)”. The “Organism, effect” value ([2]; S. epidermidis) was “S. epidermidis (M)” and the “Organism, effect” value ([2]; S. pneumoniae) was “S. pneumoniae (C)”.

In the case of “PF-630: peptide having multiple activities (chain 1 IPATPIIHS; chain 2 IPATPIIHS; Peptide with targeting and/or antimicrobial activity)”, the Activities [1] is reported as “G B” and the “Organism, effect” value ([2]; MRSA) is reported as “MRSA (M)”.

In the case of “PF-634: peptide having multiple activities (chain 1 MPKARPVNHNKKKSKITIKSNFTLFYMFNP; chain 2 MPKARPVNHNKKKSKITIKSNFTLFYMFNP; Peptide with targeting and/or antimicrobial activity)”, the Activities [1] is reported as “G B”, the “Organism, effect” value ([2]; E. coli) is reported as “E. coli (C)” and the “Organism, effect” value ([2]; M. luteus) is reported as “M. luteus (C)”. The “Organism, effect” value ([2]; MRSA) was “MRSA (D)”, the “Organism, effect” value ([2]; P. mirabilis) was “P. mirabilis (C)” and the “Organism, effect” value ([2]; S. epidermidis) was “S. epidermidis (D)”. For the same molecule, the “Organism, effect” value ([2]; S. mutans) was “S. mutans (D)” and the “Organism, effect” value ([2]; S. pneumoniae) was “S. pneumoniae (D)”.

With “PF-770: peptide having multiple activities (GVGIGFIMMGVVGYAVKLVHIPIRYLIV; Peptide with targeting and/or antimicrobial activity)” the Activities [1] was “G B”, the “Organism, effect” value ([2]; E. coli) was “E. coli (C)” and the “Organism, effect” value ([2]; M. luteus) was “M. luteus (C)”. For the same molecule, the “Organism, effect” value ([2]; MRSA) was “MRSA (D)”, the “Organism, effect” value ([2]; P. mirabilis) was “P. mirabilis (C)” and the “Organism, effect” value ([2]; S. epidermidis) was “S. epidermidis (D)”. For the same molecule, the “Organism, effect” value ([2]; S. mutans) was “S. mutans (D)” and the “Organism, effect” value ([2]; S. pneumoniae) was “S. pneumoniae (C)”.

B1: PF-612: peptide having multiple activities (peptide)
chain 1: GTTLKYGLERQLKIDIHPEITIINLNGGADEFAKL
chain 2: B1 chain 1
modifications: Peptide with targeting and/or antimicrobial activity
With B1 the Activities [1] was “G B”, the “Organism, effect” value ([2]; E. coli) was “E. coli (C)” and the “Organism, effect” value ([2]; M. luteus) was “M. luteus (A)”. For the same molecule, the “Organism, effect” value ([2]; MRSA) was “MRSA (C)”, the “Organism, effect” value ([2]; P. mirabilis) was “P. mirabilis (C)” and the “Organism, effect” value ([2]; S. epidermidis) was “S. epidermidis (C)”. For the same molecule, the “Organism, effect” value ([2]; S. mutans) was “S. mutans (F)” and the “Organism, effect” value ([2]; S. pneumoniae) was “S. pneumoniae (C)”.

B2: PF-S003: peptide having multiple activities (peptide)
chain 1: ALALLKQDLLNFEGRGRIITSTYLQFNEGCVP
chain 2: B2 chain 1
modifications: Peptide with targeting and/or antimicrobial activity
For B2, the Activities [1] was “G B”, the “Organism, effect” value ([2]; B. subtilis) was “B. subtilis (A)” and the “Organism, effect” value ([2]; C. albicans) was “C. albicans (A)”. The “Organism, effect” value ([2]; C. jeikeium) was “C. jeikeium (D)”, the “Organism, effect” value ([2]; C. jejuni) was “C. jejuni (D)” and the “Organism, effect” value ([2]; M. luteus) was “M. luteus (R)”. The “Organism, effect” value ([2]; MRSA) was “MRSA (M)”, the “Organism, effect” value ([2]; P. aeruginosa) was “P. aeruginosa (A)” and the “Organism, effect” value ([2]; S. epidermidis) was “S. epidermidis (R)”. For the same molecule, the “Organism, effect” value ([2]; S. pneumoniae) was “S. pneumoniae (D)”.
